# Source: ChEMBL document CHEMBL3813628, “Molecular similarity guided optimization of novel Nrf2 activators with 1,2,4-oxadiazole core” (Bioorg Med Chem, 2016)
# Experiments:
# Type in all cases: cell-based
# [1] = molecular target: T1, Nuclear factor erythroid 2-related factor 2 (Homo sapiens) (UniProt Q16236); experiment: Activation of Nrf2 in human HepG2 cells at 20 uM incubated for 12 hrs by ARE-driven luciferase reporter gene assay relative to control
# T1 sequence (whole entry): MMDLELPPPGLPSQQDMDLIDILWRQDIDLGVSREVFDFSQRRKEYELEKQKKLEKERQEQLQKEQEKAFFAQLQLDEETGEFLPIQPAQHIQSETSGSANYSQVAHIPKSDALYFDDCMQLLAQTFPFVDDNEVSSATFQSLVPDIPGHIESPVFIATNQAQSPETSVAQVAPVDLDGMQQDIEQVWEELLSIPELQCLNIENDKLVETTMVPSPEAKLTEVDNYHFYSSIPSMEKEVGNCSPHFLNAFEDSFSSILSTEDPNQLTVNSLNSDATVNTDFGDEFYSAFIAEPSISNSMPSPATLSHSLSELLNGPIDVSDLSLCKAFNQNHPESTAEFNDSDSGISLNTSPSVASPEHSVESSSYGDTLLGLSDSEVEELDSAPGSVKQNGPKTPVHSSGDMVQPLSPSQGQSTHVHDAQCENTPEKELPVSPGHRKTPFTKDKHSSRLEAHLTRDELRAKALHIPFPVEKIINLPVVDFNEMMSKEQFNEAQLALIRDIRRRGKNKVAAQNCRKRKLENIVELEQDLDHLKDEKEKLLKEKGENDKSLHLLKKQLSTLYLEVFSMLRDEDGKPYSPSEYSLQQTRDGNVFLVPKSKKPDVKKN
# [2] = molecular target: T1, Nuclear factor erythroid 2-related factor 2 (Homo sapiens); experiment: Activation of Nrf2 in human HepG2 cells at 5 uM incubated for 12 hrs by ARE-driven luciferase reporter gene assay relative to control
# [3] = molecular target: T1, Nuclear factor erythroid 2-related factor 2 (Homo sapiens); experiment: Activation of Nrf2 in human HepG2 cells at 2 uM incubated for 12 hrs by ARE-driven luciferase reporter gene assay relative to control
# [4] = molecular target: T1, Nuclear factor erythroid 2-related factor 2 (Homo sapiens); experiment: Activation of Nrf2 in human HepG2 cells at 160 uM incubated for 12 hrs by ARE-driven luciferase reporter gene assay relative to control
# [5] = molecular target: T1, Nuclear factor erythroid 2-related factor 2 (Homo sapiens); experiment: Activation of Nrf2 in human HepG2 cells at 0.02 uM incubated for 12 hrs by ARE-driven luciferase reporter gene assay relative to control
# [6] = molecular target: T1, Nuclear factor erythroid 2-related factor 2 (Homo sapiens); experiment: Activation of Nrf2 in human HepG2 cells at 0.2 uM incubated for 12 hrs by ARE-driven luciferase reporter gene assay relative to control
# [7] = molecular target: T1, Nuclear factor erythroid 2-related factor 2 (Homo sapiens); experiment: Activation of Nrf2 in human HepG2 cells at 40 uM incubated for 12 hrs by ARE-driven luciferase reporter gene assay relative to control
# [8] = molecular target: T1, Nuclear factor erythroid 2-related factor 2 (Homo sapiens); experiment: Activation of Nrf2 in human HepG2 cells at 80 uM incubated for 12 hrs by ARE-driven luciferase reporter gene assay relative to control
SMILES,fold change (FC) [1],fold change (FC) [2],fold change (FC) [3],fold change (FC) [4],fold change (FC) [5],fold change (FC) [6],fold change (FC) [7],fold change (FC) [8]
CC(C)n1c(=O)[nH]c2cc(-c3noc(/C=C/c4ccccc4)n3)ccc21,5.19,3.19,–,–,–,–,–,–
CC(C)n1c(=O)[nH]c2cc(-c3noc(C4CCCCC4)n3)ccc21,6.28,4.98,7.51,5.74,3.81,6.14,7.33,6.17
Cc1nc2cc(-c3noc(Cc4ccc(F)cc4)n3)ccc2o1,3.2,1.73,–,–,–,–,–,–
CCc1cc(O)nc(SCc2nc(-c3ccc(Cl)c(F)c3)no2)n1,4.28,1.38,–,–,–,–,–,–
Cc1nc2cc(-c3noc(/C=C/c4ccccc4)n3)ccc2o1,5.46,4.64,4.11,7.64,2.26,3.14,6.78,7.31
